{"source": "patent US7973219B2", "about": "“Method for producing transgenic plants resistant to weed control compounds which disrupt the porphyrin pathways of plants” (Sumitomo Chemical Company, Limited, priority 1998, dated 2011)", "key": {"[1]": {"tested_on": "E. coli BT3/pACYCSP+pYAGF strain", "assay": "Growth of E. coli BT3/pACYCSP+pYAGF with herbicidal compound", "assay_type": "cell-based, Escherichia coli", "details": "1 ppm, 18 hours culture, Table 15", "excerpt": "According to the description of Gibson, L. C. D. et al., Proc. Natl. Acad. Sci. USA, 92; p 1941 (1995), the DNA fragment containing bchH gene prepared in Example 1 was digested with the restriction enzymes NdeI and BglII. The resultant DNA fragment was inserted between NdeI restriction site and BamHI restriction site of expression vector pET11a (manufactured by Stratagene) to obtain plasmid pETBCH (FIG. 1). This plasmid pETBCH was introduced into E. coli BL21(DE3) strain competent cells (manufactured by Stratagene) according to the manual attached to the competent cells to obtain E. coli BL21(DE3)/pETBCH strain. The strain was inoculated into 1.5 ml LB liquid culture medium (1% tryptone, 0.5% yeast extract, 0.5% NaCl) containing 100 μg/ml ampicillin in a tube (14×10 mm), and the tube was covered with aluminum foil (hereinafter referred to as dark conditions), cultured with shaking at 37° C. under light of fluorescent lamp (about 8000 lux). When the absorbance at 600 nm of the liquid culture medium became about 0.6, isopropyl β-D-thiogalactopyranoside (IPTG) was added to the liquid culture medium so that the final concentration was 0.4 mM, and the culture was continued for about additional 20 hours. […]"}, "[2]": {"tested_on": "E. coli BT3/pACYCSP+pTVBCH strain", "assay": "Growth of E. coli BT3/pACYCSP+pTVBCH (bchH) with herbicidal compound", "assay_type": "cell-based", "details": "Escherichia coli, 18 h, 18 hours culture, Table 2", "excerpt": "According to the description of Gibson, L. C. D. et al., Proc. Natl. Acad. Sci. USA, 92; p 1941 (1995), the DNA fragment containing bchH gene prepared in Example 1 was digested with the restriction enzymes NdeI and BglII. The resultant DNA fragment was inserted between NdeI restriction site and BamHI restriction site of expression vector pET11a (manufactured by Stratagene) to obtain plasmid pETBCH (FIG. 1). This plasmid pETBCH was introduced into E. coli BL21(DE3) strain competent cells (manufactured by Stratagene) according to the manual attached to the competent cells to obtain E. coli BL21(DE3)/pETBCH strain. The strain was inoculated into 1.5 ml LB liquid culture medium (1% tryptone, 0.5% yeast extract, 0.5% NaCl) containing 100 μg/ml ampicillin in a tube (14×10 mm), and the tube was covered with aluminum foil (hereinafter referred to as dark conditions), cultured with shaking at 37° C. under light of fluorescent lamp (about 8000 lux). When the absorbance at 600 nm of the liquid culture medium became about 0.6, isopropyl β-D-thiogalactopyranoside (IPTG) was added to the liquid culture medium so that the final concentration was 0.4 mM, and the culture was continued for about additional 20 hours. […] In contrast to this, when E. coli BL21(DE3)/pETBCH strain was cultured according to the same manner (with IPTG) except that the tube was not covered with aluminum foil (hereinafter referred to as light conditions), E. coli grew and turned red as above. […]\nThese strains were inoculated into YPT medium containing 10 or 1 ppm of the PPO inhibitory-type herbicidal compound represented by the above Structure 8, 100 μg/ml ampicillin, 15 μg/ml chloramphenicol, 10 μg/ml kanamycin, 10 μg/ml hemin and 50 μg/ml aminolevulinic acid, cultured under dark conditions or light conditions according to the same manner as in Example 2. Then, 18 hours after initiation of culture, the absorbance of the liquid culture medium was measured at 600 nm. By taking the absorbance of the medium without the herbicidal compound as 1, the relative value of the absorbance of the medium containing the herbicidal compound was calculated.\nFurther, these strains were inoculated into YPT medium containing PPO inhibitory-type herbicidal compounds represented by the above Structures 1, 14, 15, 18-22, 29, 32, 33, 34 and 36, respectively, 100 μg/ml ampicillin, 15 μg/ml chloramphenicol, 10 μg/ml kanamycin, 10 μg/ml hemin and 50 μg/ml aminolevulinic acid, cultured under dark conditions or light conditions similar to the Example 2. Then, 18 hours after initiation of culture, the absorbance of liquid culture medium was measured at 600 nm. By taking the absorbance of the medium without the herbicidal compound as 1, the relative value of the absorbance of the medium containing the herbicidal compound was calculated."}, "[3]": {"details": "read-out: Relative absorbance, in the dark"}, "[4]": {"details": "read-out: Relative absorbance, in the light"}}, "note": "Read-outs that look alike come from different tables or passages of the source.", "data": [{"smiles": "C#CCOc1cc(N2C(=O)C3=C(CCCC3)C2=O)c(F)cc1Cl", "note": "[Structure 8]", "values": [{"measurement": "Relative absorbance", "setting": "[1]; in the dark", "result": 0.96}, {"measurement": "Relative absorbance", "setting": "[1]; in the light", "result": 0.62}, {"measurement": "activity at 1 ppm", "setting": "[2]; [3]", "result": 106, "unit": "%"}, {"measurement": "activity at 10 ppm", "setting": "[2]; [3]", "result": 90, "unit": "%"}, {"measurement": "activity at 1 ppm", "setting": "[2]; [4]", "result": 77, "unit": "%"}, {"measurement": "activity at 10 ppm", "setting": "[2]; [4]", "result": 80, "unit": "%"}]}]}
